According to US20080194466A1, “(5Z)-5-(6-Quinoxalinylmethylidene)-2-[(2,4,6-Trichlorophenyl)Amino]-1,3-Thiazol-4(5H)-One” (priority 2005, published 2008):
Counter-ions that a name gives are not always drawn.

Assays:
[1] = Oral bioavailability (blood exposure, DNAUC) in rats; assay type: in vivo, male Sprague-Dawley rats; details: for Oral DNAUC rats (Sprague-Dawley): sodium salts, oral gavage, dose ~1-4 mg/kg, 50% PEG-400, 10% ethanol, 40% of 40% (w/v) aqueous Encapsin, blood, LC/MS/MS, 0-1440 min
Method: The sodium salt of Compound A was fed to male Sprague-Dawley rats by oral gavage in a formulation with 50% PEG-400, 10% ethanol, 40% of 40% (w/v) aqueous Encapsin in water at a dose of between 1 and 4 mg/kg (16 mL of dose solution per kg). Blood (120 microliters) was sampled at the following time intervals: 0, 20, 40, 60, 120, 180, 240, 360, 480, and 1440 min. The concentration of Compound A was quantified by LC/MS/Ms analysis of an aliquot (25 microliters blood+25 microliters water) of these samples and the overall blood exposure reported as the Dose-Normalised Area Under the Curve (DNAUC) from a concentration versus time plot and expressed in the units microgram hours per milliliter per […] per kilogram (ug.h/mL/mg/kg). The oral exposures of the sodium salt of Compound B and the sodium salt of Compound C were quantified by the same method.

hYAK3 kinase enzyme = biological target: T1, hYAK3 kinase enzyme (Homo sapiens, UniProt O43781); test: in vitro hYAK3 kinase enzyme inhibition; assay type: biochemical; details: in vitro assays; compared with Compound B and Compound C
T1 sequence (O43781 1-588): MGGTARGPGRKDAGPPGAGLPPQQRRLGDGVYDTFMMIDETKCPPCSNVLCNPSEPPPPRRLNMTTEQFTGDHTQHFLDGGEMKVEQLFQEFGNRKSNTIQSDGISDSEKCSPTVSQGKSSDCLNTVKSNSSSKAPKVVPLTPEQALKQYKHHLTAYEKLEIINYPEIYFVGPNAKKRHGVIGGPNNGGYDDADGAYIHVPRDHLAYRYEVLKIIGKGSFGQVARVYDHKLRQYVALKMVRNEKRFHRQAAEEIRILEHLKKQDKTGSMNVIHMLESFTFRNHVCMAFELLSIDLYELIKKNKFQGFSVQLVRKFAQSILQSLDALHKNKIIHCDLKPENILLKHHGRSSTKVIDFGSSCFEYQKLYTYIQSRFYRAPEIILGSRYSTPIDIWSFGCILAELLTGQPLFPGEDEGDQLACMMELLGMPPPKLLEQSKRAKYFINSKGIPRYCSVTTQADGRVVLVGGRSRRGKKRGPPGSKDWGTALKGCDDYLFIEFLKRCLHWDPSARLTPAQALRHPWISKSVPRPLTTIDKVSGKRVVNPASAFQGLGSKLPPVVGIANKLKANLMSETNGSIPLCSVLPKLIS
Method: Compound A is tested for its ability to inhibit the hYAK3 kinase enzyme by known methods such as those described in International Application No. PCT/US2003/037658.

| SMILES | Oral DNAUC rats (Sprague-Dawley) [1] | hYAK3 kinase enzyme inhibition activity (hYAK3 kinase enzyme) | bioavailability in vivo ([1]; compared with the most closely related compounds of PCT/US2003/037658) |
| --- | --- | --- | --- |
| O=C1N=C(Nc2c(Cl)cc(Cl)cc2Cl)S/C1=C\c1ccc2nccnc2c1.[Na] [Compound A•Na, (5Z)-5-(6-quinoxalinylmethylidene)-2-[(2,4,6-trichlorophenyl)amino]-1,3-thiazol-4(5H)-one sodium salt] | 26.11 ug · h/mL/min/kg |  |  |
| O=C1NC(=Nc2ccccc2Cl)S/C1=C\c1ccc2nccnc2c1 [C•Na, 2-(2-chloro-phenylimino)-5-(quinoxalin-6-ylmethylene)-thiazolidin-4-one sodium salt, reference compound] | 0.34 ug · h/mL/min/kg |  |  |
| O=C1NC(=Nc2c(Cl)cccc2Cl)S/C1=C\c1ccc2ncccc2c1 [Compound B•Na, 2-(2,6-dichloro-phenylimino)-5-(quinolin-6-ylmethylene)-thiazolidin-4-one sodium salt, reference compound] | 0.49 ug · h/mL/min/kg |  |  |
| O=C1NC(=Nc2c(Cl)cc(Cl)cc2Cl)S/C1=C\c1ccc2nccnc2c1 [Compound A, (5Z)-5-(6-quinoxalinylmethylidene)-2-[(2,4,6-trichlorophenyl)amino]-1,3-thiazol-4(5H)-one] |  | activity similar to Compound B (described herein) and Compound C | significantly greater bioavailability in vivo |
